Measurements from patent US20070145618A1, “Methods of making microencapsulated delivery vehicles” (Kimberly-Clark Worldwide, Inc., priority 2005, published 2007).
Where two headings read alike, the source gives them in different places.

How the values were obtained:
[1] = particle size less than 250 micrometers; 35 wt % in mineral oil; added to 7.0 grams de-ionized water; compared with three other size ranges
Description: In this example, samples incorporating various size ranges of anhydrous magnesium chloride suspended in mineral oil at 35 wt % were evaluated for their ability to generate heat upon introduction into water.
The four size ranges of anhydrous magnesium chloride evaluated were: (1) 1000-1500 microns; (2) 600-1000 microns; (3) 250-600 microns; and (4) less than 250 microns. To produce the samples of anhydrous magnesium chloride in mineral oil, the various size ranges of anhydrous magnesium chloride powder (Magnesium Interface Inc. (Vancouver, B.C., Canada) were suspended at 35 wt % in mineral oil (available as Drakeol 7 LT NF from Penreco, Dickinson, Tex.). To produce the samples having anhydrous magnesium chloride with size ranges of 1000-1500 microns, 600-1000 microns, and 250-600 microns, the as received anhydrous magnesium chloride powder was hand screened into the size ranges desired and the powders collected. These powders were suspended at 35 wt % in mineral oil using a cowles mixing blade. […]
All four samples were then added to 7.0 grams de-ionized water and the resulting temperature rise was measured using a J type Thermocouple (available from Omega Engineering, Inc., Stamford, Conn.).

[2] = particle size 149-355 micrometers; 35 wt % in mineral oil; added to 7.0 grams de-ionized water; compared with four other size ranges
Description: In this example, samples incorporating various size ranges of anhydrous calcium chloride suspended in mineral oil at 35 wt % were evaluated for their ability to generate heat upon introduction into water.
The five size ranges of anhydrous calcium chloride evaluated were: (1) less than 149 microns; (2) 149-355 microns; (3) 710-1190 microns; (4) 1190-2000 microns; and (5) 2000-4000 microns. The samples of anhydrous calcium chloride (Dow Chemical, Midland, Mich.) were dispersed in mineral oil (available as Drakeol 7 LT NF from Penreco, Dickinson, Tex.). The as received anhydrous calcium chloride were screened dry using a Gilson Sonic Sieve (Gilson Company, Inc. Columbus, Ohio) to create two sizes, a 1190-2000 micron size and a 2000-4000 micron size. These powders were then suspended at 35 wt % in mineral oil to form a slurry using a cowles mixing blade. To achieve the smaller size distributions, the anhydrous calcium chloride powder required further processing. […]
All five samples were then individually added to 7.0 grams de-ionized water and the resulting temperature rise was measured using a Barnant Scanning Thermocouple (available from Therm-X of California, Hayward, Calif.).

[Cl-].[Cl-].[Mg+2] [anhydrous magnesium chloride, magnesium chloride]
rate of heat release (heat generation rate) [1]: highest rate

[Ca+2].[Cl-].[Cl-] [anhydrous calcium chloride, calcium chloride]
rate of heat release (heat generation rate) [2]: highest rate
